Experimental data published in patent US10611775B2, “Thiophene derivatives” (TIANJIN HEMAY PHARMACEUTICAL CO., LTD., priority 2009, dated 2020).

Key:
[1] = system: TNFα release by PBMCs stimulated by LPS; assay: Inhibition of TNFα release by mononuclear cells (PBMCs) stimulated by LPS; type: cell-based; details: compound 1 hour before LPS, further 20 hours, TNFα in supernate by ELISA
Excerpt: 1. Effects of Mononuclear Cells (PBMCs) Stimulated by LPS on TNFα
The research in respect of cytokine TNFα release by PBMCs in the human peripheral blood after stimulated by lipopolysaccharide (LPS) can be carried out in vitro. The research method for inhibiting cytokine TNFα release by PBMCs upon stimulation by LPS with the pharmaceutical active ingredients in the present application is described as follows.
PBMCs are obtained from heparin treated blood of at least three volunteer donors. The heparin treated blood of at least three volunteer donors was subject to gradient separation of the known method to obtain PBMCs. The PBMCs were collected and washed with 1640 medium (10% fetal bovine serum, 2 mM L-glutamine, […] mercaptoethanol, 50 μg/ml streptomycin and 50 U/ml penicillin) three times. The PBMCs was added into a 24-well plate and prepared with a concentration of 1×10^6 cell/ml with 1640 medium. A compound to be tested was dissolved in dimethylsulfoxide and prepared as a solution of the compound to be tested with a required concentration. The solution was added into the cell cultures. After incubated in a CO2 incubator (5% CO2, 90% humidity) for 1 hour, LPS (Sigma) was added until […] (except for the control).
After the medium was further incubated for 20 hours, the content of TNFα in the supernate of the PBMCs medium was measured by the standard method with commercial ELISA kit (U. S Genzyme Co). The inhibition ratio of TNFα was calculated by the measured value of control well without treated by active ingredients and the measured value of the test well using the test compound. The concentration of generating 50% inhibition of the TNFα release (IC50 value) was calculated with nonlinear regression analysis. Each concentration was measured twice simultaneously and an average value was calculated.

PDE4B1 = target: T1, PDE4B1 (Homo sapiens, UniProt Q07343); assay: Inhibitory activity of PDE4 enzyme (hydrolysis of cAMP), PDE4B1; type: biochemical; details: cAMP 5 μM, 37° C., 15 min to 30 min, AMP by HPLC-MS
T1 construct: purchased BPS bioscience 60041
T1 sequence (Q07343 whole entry): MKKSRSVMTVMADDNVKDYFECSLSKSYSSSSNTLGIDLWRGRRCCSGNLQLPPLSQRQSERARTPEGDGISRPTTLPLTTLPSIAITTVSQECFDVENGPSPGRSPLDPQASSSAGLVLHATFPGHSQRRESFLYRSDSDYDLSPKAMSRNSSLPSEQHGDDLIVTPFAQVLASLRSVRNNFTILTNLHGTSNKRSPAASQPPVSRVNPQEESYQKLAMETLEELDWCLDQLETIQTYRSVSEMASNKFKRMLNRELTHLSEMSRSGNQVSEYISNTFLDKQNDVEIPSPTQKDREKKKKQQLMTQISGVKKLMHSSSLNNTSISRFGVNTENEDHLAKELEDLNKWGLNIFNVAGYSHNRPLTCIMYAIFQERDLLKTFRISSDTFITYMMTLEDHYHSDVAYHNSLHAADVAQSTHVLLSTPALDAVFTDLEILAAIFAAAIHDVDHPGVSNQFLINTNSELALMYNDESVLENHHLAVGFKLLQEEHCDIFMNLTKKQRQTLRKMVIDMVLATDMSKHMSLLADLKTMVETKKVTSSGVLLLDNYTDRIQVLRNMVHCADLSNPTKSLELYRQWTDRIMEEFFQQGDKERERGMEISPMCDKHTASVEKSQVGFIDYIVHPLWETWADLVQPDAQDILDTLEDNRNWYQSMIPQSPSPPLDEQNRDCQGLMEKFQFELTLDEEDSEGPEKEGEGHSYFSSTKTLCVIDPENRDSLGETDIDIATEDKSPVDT
Procedure: (§1) (1) The inhibitory actions of compounds on activity of hydrolyzing cAMP with PDE4 enzyme were assayed by the inhibitory activity of PDE4 enzyme. The procedures are described as follows.
(§2) Humanized PDE4A1A, PDE4B1 and PDE4D2 were purchased from BPS bioscience (catalogue Nos.: 60040, 60041 and 60043, respectively). The enzyme reactions were carried out in 10 mM Tris-HCl (pH 7.4) and 1 mM MgCl2. The concentration of cAMP was 5 μM. The reaction was maintained at 37° C. for 15 min to 30 min so that the consumption of the substrate was controlled within 20%. The reaction was quenched with equal volume of acetonitrile. The production amount of the […] AMP was measured by HPLC-MS. The inhibitory activity of compounds on PDE4 enzyme was obtained by comparing the production amounts of the AMP in the experimental groups having the compounds with those of the control groups having no compounds.

PDE4D2 = target: T2, PDE4D2 (Homo sapiens, UniProt Q08499); assay: Inhibitory activity of PDE4 enzyme (hydrolysis of cAMP), PDE4D2; type: biochemical; details: cAMP 5 μM, 37° C., 15 min to 30 min, AMP by HPLC-MS
T2 construct: purchased BPS bioscience 60043
T2 sequence (Q08499 303-809): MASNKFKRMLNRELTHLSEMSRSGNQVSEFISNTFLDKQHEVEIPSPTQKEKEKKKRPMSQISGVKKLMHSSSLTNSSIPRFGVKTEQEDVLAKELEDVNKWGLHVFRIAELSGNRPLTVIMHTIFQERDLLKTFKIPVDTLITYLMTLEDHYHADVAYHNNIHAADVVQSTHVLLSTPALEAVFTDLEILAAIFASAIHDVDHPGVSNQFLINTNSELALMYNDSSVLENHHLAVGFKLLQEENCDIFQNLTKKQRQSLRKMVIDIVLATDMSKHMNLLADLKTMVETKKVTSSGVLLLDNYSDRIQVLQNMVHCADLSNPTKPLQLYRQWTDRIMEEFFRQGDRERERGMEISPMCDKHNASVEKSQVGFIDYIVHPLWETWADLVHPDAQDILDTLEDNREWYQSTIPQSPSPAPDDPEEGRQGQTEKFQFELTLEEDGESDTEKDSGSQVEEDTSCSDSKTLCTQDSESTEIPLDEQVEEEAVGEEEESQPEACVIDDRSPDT
Procedure: as §1, §2

PDE4A1A = target: T3, PDE4A1A (Homo sapiens, UniProt P27815); assay: Inhibitory activity of PDE4 enzyme (hydrolysis of cAMP), PDE4A1A; type: biochemical; details: cAMP 5 μM, 37° C., 15 min to 30 min, AMP by HPLC-MS
T3 construct: purchased BPS bioscience 60040
T3 sequence (P27815 1-647 isoform P27815-4): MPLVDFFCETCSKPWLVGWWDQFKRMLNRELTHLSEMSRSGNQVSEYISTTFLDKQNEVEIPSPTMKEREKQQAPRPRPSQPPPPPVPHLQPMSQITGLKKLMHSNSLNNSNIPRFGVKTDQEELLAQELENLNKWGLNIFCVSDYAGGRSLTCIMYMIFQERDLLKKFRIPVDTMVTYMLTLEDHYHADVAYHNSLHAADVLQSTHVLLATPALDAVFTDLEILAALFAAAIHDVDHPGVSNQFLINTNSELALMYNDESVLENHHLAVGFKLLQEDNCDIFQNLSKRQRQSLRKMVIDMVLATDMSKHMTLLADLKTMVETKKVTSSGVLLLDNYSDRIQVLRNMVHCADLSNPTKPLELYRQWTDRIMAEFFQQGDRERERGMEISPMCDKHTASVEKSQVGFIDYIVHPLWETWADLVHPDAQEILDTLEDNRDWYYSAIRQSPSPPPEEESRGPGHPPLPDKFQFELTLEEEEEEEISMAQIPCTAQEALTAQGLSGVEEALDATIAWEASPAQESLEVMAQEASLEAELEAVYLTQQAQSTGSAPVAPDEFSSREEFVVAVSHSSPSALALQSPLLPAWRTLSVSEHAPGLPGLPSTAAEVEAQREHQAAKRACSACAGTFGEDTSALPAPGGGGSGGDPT
Procedure: as §1, §2

PDE2A = target: T4, PDE2A (Homo sapiens, UniProt O00408); assay: Inhibitory activity of PDE2 (selectivity of PDE enzyme); type: biochemical; details: cAMP 5 μM, 37° C., 30 min, AMP by HPLC-MS
T4 construct: purchased BPS bioscience 60020
T4 sequence (O00408 whole entry): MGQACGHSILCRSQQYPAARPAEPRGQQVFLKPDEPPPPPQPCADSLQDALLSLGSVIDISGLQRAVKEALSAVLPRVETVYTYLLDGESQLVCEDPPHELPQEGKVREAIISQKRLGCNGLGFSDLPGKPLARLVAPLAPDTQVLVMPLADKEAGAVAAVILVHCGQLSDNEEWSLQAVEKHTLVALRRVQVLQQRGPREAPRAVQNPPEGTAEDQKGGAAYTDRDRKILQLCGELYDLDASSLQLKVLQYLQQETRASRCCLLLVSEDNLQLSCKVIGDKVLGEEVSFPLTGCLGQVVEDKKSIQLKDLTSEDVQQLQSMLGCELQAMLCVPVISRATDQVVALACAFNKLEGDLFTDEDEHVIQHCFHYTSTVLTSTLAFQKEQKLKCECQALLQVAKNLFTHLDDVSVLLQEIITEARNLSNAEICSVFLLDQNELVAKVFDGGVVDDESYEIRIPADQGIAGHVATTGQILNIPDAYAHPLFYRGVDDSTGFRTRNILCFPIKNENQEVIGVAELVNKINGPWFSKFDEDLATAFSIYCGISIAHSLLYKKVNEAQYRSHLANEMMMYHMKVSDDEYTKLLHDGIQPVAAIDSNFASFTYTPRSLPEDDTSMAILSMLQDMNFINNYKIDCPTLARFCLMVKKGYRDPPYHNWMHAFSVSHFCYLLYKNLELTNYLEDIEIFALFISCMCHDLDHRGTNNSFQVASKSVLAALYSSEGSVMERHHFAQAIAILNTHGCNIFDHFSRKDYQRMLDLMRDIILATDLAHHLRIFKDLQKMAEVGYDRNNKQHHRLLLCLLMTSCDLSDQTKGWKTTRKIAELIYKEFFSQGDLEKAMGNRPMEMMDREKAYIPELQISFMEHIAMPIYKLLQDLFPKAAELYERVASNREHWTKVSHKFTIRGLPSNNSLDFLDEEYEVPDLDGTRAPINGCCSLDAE
Procedure: (2) Inhibitory Activity of PDE2 (Selectivity of PDE Enzyme):
as §2, with “PDE2A was” for “PDE4A1A, PDE4B1 and PDE4D2 were”, “No.: 60020).” for “Nos.: 60040, 60041 and 60043, respectively).”, “reaction was” for “reactions were”, “μM,” for “μM.”, “for” for “for 15 min to”, “PDE2” for “PDE4 enzyme”

SMILES | IC50 ([1]; human PBMCs) [µM] | IC50 ([1]; Homo sapiens, PBMC) [µM] | IC50 (PDE4B1) [µM] | IC50 (PDE4D2) [µM] | IC50 (PDE4A1A) [µM] | IC50 (PDE2A) [µM]
CCOc1cc([C@@H](CS(C)(=O)=O)N2C(=O)c3csc(N)c3C2=O)ccc1OC [Example 21, (S)-1-amino-5-(1-(3-ethoxy-4-methoxyphenyl)-2-(methylsulfonyl)ethyl)-5H-thiophene[3,4-c]pyrrole-4,6-diketone] | 0.142 |  |  |  |  | 
CCOc1cc(C(CS(C)(=O)=O)N2C(=O)c3csc(N)c3C2=O)ccc1OC (stereo not shown) [Example 2, 5-(1-(3-ethoxy-4-methoxyphenyl)-2-(methylsulfonyl)ethyl)-1-amino-5H-thiophene[3,4-c]pyrrole-4,6-diketone] |  | 0.524 | 0.212 | 1.9 |  | 
CCOc1cc([C@@H](CS(C)(=O)=O)N2C(=O)c3cscc3C2=O)ccc1OC [Example 5, (S)-5-(1-(3-ethoxy-4-methoxyphenyl)-2-(methylsulfonyl)ethyl)-5H-thiophene[3,4-c]pyrrole-4,6-diketone] |  | 0.376 | 0.368 |  |  | 
COc1ccc(C(CS(C)(=O)=O)N2C(=O)c3csc(NC(C)=O)c3C2=O)cc1OCc1ccccc1 (stereo not shown) [Example 12, N-(5-(1-(3-phenylmethoxy-4-methoxyphenyl)-2-(methylsulfonyl)ethyl)-4,6-dioxo-5,6-dihydro-4H-thiophene[3,4-c]pyrrole-1-yl)acetamide] |  | > 10 | 1.2 |  |  | 
CCOc1cc(C(CS(C)(=O)=O)N2C(=O)c3cscc3C2=O)ccc1OC (stereo not shown) [Example 4, 5-(1-(3-ethoxy-4-methoxyphenyl)-2-(methylsulfonyl)ethyl)-5H-thiophene[3,4-c]pyrrole-4,6-diketone] |  | 0.886 | 1.2 | 0.329 | 0.366 | 
CCOc1ccc(C(CS(C)(=O)=O)N2C(=O)c3csc(NC(C)=O)c3C2=O)cc1OC (stereo not shown) [Example 26, N-(5-(1-(3-methoxy-4-ethoxyphenyl)-2-(methylsulfonyl)ethyl)-4,6-dioxo-5,6-dihydro-4H-thiophene[3,4-c]pyrrole-1-yl)acetamide] | > 10 |  |  |  |  | 
CCOc1cc([C@H](CS(C)(=O)=O)N2C(=O)c3csc(N)c3C2=O)ccc1OC [Example 23, (R)-1-amino-5-(1-(3-ethoxy-4-methoxyphenyl)-2-(methylsulfonyl)ethyl)-5H-thiophene[3,4-c]pyrrole-4,6-diketone] |  | 1.9 | 0.718 | 0.055 |  | 
CCOc1cc([C@@H](CS(C)(=O)=O)N2C(=O)c3csc([N+](=O)[O-])c3C2=O)ccc1OC [Example 20, (S)-1-nitro-5-(1-(3-ethoxy-4-methoxyphenyl)-2-(methylsulfonyl)ethyl)-5H-thiophene[3,4-c]pyrrole-4,6-diketone] |  |  | 0.026 |  |  | 
COc1ccc(C(CS(C)(=O)=O)N2C(=O)c3csc(N)c3C2=O)cc1OCc1ccccc1 (stereo not shown) [Example 11, 5-(1-(3-phenylmethoxy-4-methoxyphenyl)-2-(methylsulfonyl)ethyl)-1-amino-5H-thiophene[3,4-c]pyrrole-4,6-diketone] |  | > 10 | 1 |  |  | 
CCOc1cc(C(CS(C)(=O)=O)N2C(=O)c3csc(NC(C)=O)c3C2=O)ccc1OC (stereo not shown) [Example 3, N-(5-(1-(3-ethoxy-4-methoxyphenyl)-2-(methylsulfonyl)ethyl)-4,6-dioxo-5,6-dihydro-4H-thiophene[3,4-c]pyrrole-1-yl)acetamide] | 0.296 |  | 0.256 | 0.224 | 0.208 | 36
CCOc1cc(C(CS(C)(=O)=O)N2C(=O)c3csc(NS(C)(=O)=O)c3C2=O)ccc1OC (stereo not shown) [Example 19, N-(5-(1-(3-ethoxy-4-methoxyphenyl)-2-(methylsulfonyl)ethyl)-4,6-diketone-5,6-dihydro-4H-thiophene[3,4-c]pyrrole-1-yl)methanesulfonamide] |  | 0.288 | 0.167 |  |  | 
COc1ccc(C(CS(C)(=O)=O)N2C(=O)c3cscc3C2=O)cc1OCc1ccccc1 (stereo not shown) [Example 9, 5-(1-(3-phenylmethoxy-4-methoxyphenyl)-2-(methylsulfonyl)ethyl)-5H-thiophene[3,4-c]pyrrole-4,6-diketone] |  | 7.5 | 5.3 | 0.831 |  | 
CCOc1cc([C@H](CS(C)(=O)=O)N2C(=O)c3csc(NC(C)=O)c3C2=O)ccc1OC [Example 25, (R)—N-(5-(1-(3-ethoxy-4-methoxyphenyl)-2-(methylsulfonyl)ethyl)-4,6-dioxo-5,6-dihydro-4H-thiophene[3,4-c]pyrrole-1-yl)acetamide] | 1.19 |  |  |  |  | 
CCOc1cc([C@@H](CS(C)(=O)=O)N2C(=O)c3csc(NC(C)=O)c3C2=O)ccc1OC [Example 24, (S)—N-(5-(1-(3-ethoxy-4-methoxyphenyl)-2-(methylsulfonyl)ethyl)-4,6-dioxo-5,6-dihydro-4H-thiophene[3,4-c]pyrrole-1-yl)acetamide] | 0.065 |  | 0.178 | 0.114 | 0.104 | > 50
CCOc1cc([C@H](CS(C)(=O)=O)N2C(=O)c3cscc3C2=O)ccc1OC [Example 6, (R)-5-(1-(3-ethoxy-4-methoxyphenyl)-2-(methylsulfonyl)ethyl)-5H-thiophene[3,4-c]pyrrole-4,6-diketone] |  | 2.5 | 2.3 | 0.315 |  | 
CCOc1cc(C(CS(C)(=O)=O)N2C(=O)c3csc(NC(=O)CCl)c3C2=O)ccc1OC (stereo not shown) [Example 18, 2-chloro-N-(5-(1-(3-ethoxy-4-methoxyphenyl)-2-(methylsulfonyl)ethyl)-4,6-diketone-5,6-dihydro-4H-thiophene[3,4-c]pyrrole-1-yl)acetamide] |  | 0.216 | 0.618 |  |  | 
